Like-named read-outs stand apart in the source and are kept apart here.
Legend:
[1] = Plasma TG lowering effect in rats after 14 days repeated oral administration, blood taken after 22-hours fasting; format: in vivo, Wistar rat; details: single agent alone, rat, pitavastatin calcium 10 mg/kg, K-134 or cilostazol 100 mg/kg
From the text: To test effects of combination administration of the said agents, rats were used for the experiment. […] The vertical axis in FIG. 1 indicates concentration of plasma triglyceride (TG) (mg/dL). Administration groups: control; pitavastatin calcium (referred to as pitavastatin) alone; K-134 alone; cilostazol alone; combination of pitavastatin calcium (referred to as pitavastatin) and K-134; and combination of pitavastatin calcium (referred to as pitavastatin) and cilostazol, are listed from left to right.
Plasma TG lowering effect when pitavastatin calcium was administered in combination with K-134 or cilostazol was measured according to the following method 1-4.
A 7-week-old Wistar rat (CLEA Japan, Inc.) was housed in an animal room where light/dark cycle (light period with room lighting from 7.00 to 19.00), temperature of 23±3° C., and humidity of 55±15% were maintained through the experimental period, and solid feed (CLEA Japan, Inc.) and tap water were consumed freely.
Pitavastatin calcium, K-134 and cilostazol were each suspended in aqueous solution (1.0 mass %) of hydroxypropyl methyl cellulose (Shin-Etsu Chemical Co., Ltd.) and prepared in order that the administration dose was 1 mL/kg. The suspension was stored in a colored bottle and refrigerated at 4° C. Preparation was performed every seven days.
3. Test Method 36 rats were divided into 6 administration groups (each group consisted of 6 samples): (1) control; (2) pitavastatin calcium (10 mg/kg) alone; (3) K-134 (100 mg/kg) alone; (4) cilostazol (100 mg/kg) alone; (5) combination of pitavastatin calcium (10 mg/kg) and K-134 (100 mg/kg); and (6) combination of pitavastatin calcium (10 mg/kg) and cilostazol(100 mg/kg).
Pitavastatin was orally administered once daily at 4.00 pm for 14 days repeatedly, and K-134 or cilostazol was orally administered twice daily at 9.00 am and 4.00 pm for 14 days repeatedly. […] Blood sample was taken from each group after 22-hours fasting following the final administration in the afternoon, and plasma TG was measured. […]

[2] = normal rat; cited from earlier work
[3] = clinical report, cited from earlier work
[4] = diabetic rat; cited from earlier work

| SMILES | hypotriglyceridemic effect in vivo [1] | hypotriglyceridemic effect [2] | TG level ([3]; 4-week administration in a subject) | TG level ([3]; 24-week administration) | hypotriglyceridemic effect [4] |
| --- | --- | --- | --- | --- | --- |
| O=C(NCCCOc1ccc2[nH]c(=O)ccc2c1)N(C1CC1)[C@@H]1CCCC[C@H]1O [K-134, (−)-6-[3[3-cyclopropyl-3-[(1R, 2R)-2-hydroxycyclohexyl]ureido]-propoxy]-2-(1H)-quinolinone] | little hypotriglyceridemic effect | – | – | – | – |
| O=C1CCc2cc(OCCCCc3nnnn3C3CCCCC3)ccc2N1 [cilostazol] | little hypotriglyceridemic effect | unstable | lowered | return to former value after transient elevation | hypotriglyceridemic effect is reported |
| O=C(O)C[C@H](O)C[C@H](O)/C=C/c1c(C2CC2)nc2ccccc2c1-c1ccc(F)cc1 [pitavastatin, (3R, 5S, 6E)-7-[2-cycloropyl-4-(4-fluorophenyl)-3-quinolyl]-3,5-dihydroxy-6-heptenoic acid] | extremely weak | – | – | – | – |
